Consider 28 compounds from US12611380B2, “Solution and method for reducing the virulence of viruses, bacteria, yeasts, or fungus” (priority 2020, dated 2026).

Values after ≈ are worked out from the molar mass of the structure shown. Values joined by “and” are separate entries in the source; they are usually repeats but may differ in a detail not shown here. Equal values may be shown once. Starred links: 1 amine or outer side, 2 acyl side, 3 side chain; linkers in the order of their positions; H or OH if unused. Positions of bridges follow the written chain, without caps; N, C: chain ends. Non-standard residues stand in square brackets, D forms with d. Residues, ends and D or L forms follow the SMILES beside them. *: point of attachment. hTyr(3S-OH,4S-OH,3'-OSO3H) = N[C@H](C(=O)O)[C@H](O)[C@@H](O)c1ccc(O)c(OS(=O)(=O)O)c1; Orn(4R-OH,5R-OH) = O=C([C@H](C[C@@H](O)[C@@H](O)N[*:3])N[*:1])[*:2]; Pro(3S-OH,4S-Me) = C[C@H]1CN[C@H](C(=O)O)[C@H]1O; X1 = CCCCCOc1ccc(-c2cc(-c3ccc(C(=O)*)cc3)no2)cc1; Gln(3R-OH) = NC(=O)C[C@@H](O)[C@H](N)C(=O)O; Hyp = O=C(O)[C@@H]1C[C@@H](O)CN1 Bounds are passed on as bounds.

Series [1] is classed as physicochemical. Conditions: for Viscosity: 6% of the named additive added to 8% ILCS (potassium) hydro-gel; for reduction in viscosity: 6% additive in ILCS gel, 140° F. 1-3 days then 108° F. 2-4 days. The method, then:
A simple viscometer, Digital Viscosity Meter (NDJ-8S, Shaoxing Worner Lab Equipment Co., Ltd., China) was used, recognizing the limitations of measuring a solid gelatin hydro-gel. […] The ILCS was initially incubated at 120° F. overnight, equilibrated at […]. prior to viscometry.
ILCS was made from potassium hydroxide (Spectrum Chemical, Louisville, KY), isomerized linoleic acid (Stepan, New Jersey), and USP WFI water (Ceela Naturals), to a final concentration 8% or 333 mM Potassium Linoleate (isomerized).
Many of the amino acids tested were purchased from Ajinomoto (NJ, USA), while tryptophan, proline, and phenylalanine were obtained from Purebulk (Oregon, USA). The Quorum Sensing Agent phenylethanol was purchased from Sigma Aldrich (GA, USA).
The gel and compound were incubated at 140° F. for 1-3 days followed by incubation 108° F. for 2-4 days.

For another series, the system named is Candida auris, (AR-0381). Conditions: isolate AR Isolate Bank #0381; cited from earlier work.
The next series concerns SARS-COV-2. Description: Virucidal assay, 2 minutes contact, end-point titer (CCID50) on Vero 76 cells. Conditions: Ethanol 63%, 2 minutes.
Another series deals with microbial growth. Put plainly: Reduction in microbial growth. Type of series: cell-based. Conditions: potassium hexadiene at pH 9.
For series [2], the system named is Candida albicans (ATCC 10231). Description: EPA protocol MB-35-00 hard surface carrier disinfection test.
Method: (§1) We used EPA protocol MB-35-00 for testing disinfectants against C. auris (US Environmental Protection Agency. 2017, 2020) and C. albicans ATCC 10231, a yeast common in package spoilage of food and cosmetics.
(§2) We tested 5 batches produced with difference sources of isomerized linoleic acid (Test Substances 1-5).
(§3) The EPA test protocol for testing hard surface disinfection of C. auris (AR0381) with antifungal resistance includes an overnight culture of C. auris (AR.0381) shaken at 200 rpm at 30° C. From this culture, 8 mL was harvested by centrifugation, re-suspended in 2-3 mL phosphate-buffered saline (PBS), and mixed with a 3-part soil load including bovine serum albumin (BSA), yeast extract, and mucin. Metal carriers (10 mm) were inoculated (10 μL culture+soil load) and dried in a desiccator under vacuum (˜70 min). The disk surface was coated with the test substance at 0.42 M (50 μL) for up to 10 min. Following incubation, the carriers were transferred to 10 mL neutralization solution (Sabouraud Dextrose Broth [SDB], a common yeast-mold growth media) for subsequent harvesting on membrane filters. The filtered membranes were transferred to Sabouraud Dextrose Emmons Agar (SDEA) plates to culture for 120 hours at 31° C. Controls consisted of PBS (50 μL) applied to inoculated metal disk carriers, subsequently transferred to 10 mL neutralization solution (SDB), diluted serially in PBS, and plated directly to SDEA plates, See FIG. 2.
(§4) We prepared and qualified these per EPA protocol (US Environmental Protection Agency, 2017). • Soil Stocks: We prepared soil stocks with yeast extract powder (Ref RM027) purchased from Himedia, BSA (A2153) purchased from Sigma Life Science, and gastric mucin (cat #HY-B2196/CS-7626) purchased from Mod Chem Express per SOP MB-35-00 (US Environmental Protection Agency, 2017). • Cell Harvesting: We removed cells from the growth culture media using a Micro-Centrifuge obtained from Changzhou Jintan Sanhe Instrument Co., LTD. (Model TGI6-W) at 10,000×g for 10 min in screw-top-cap vials purchased from Heathrow Scientific (Item HS 100600). The optical density of the inoculate was defined at 15-19 OD600 in PBS with the Ultrospec 10 Cell Density Meter from BioChrom (Holliston, MA, USA) prior to dilution in the soil load. Samples were diluted 1:10 in PBS to obtain absorbance readings between 1.5 and 1.9. • Membrane Filtration: Treated yeasts were collected using a combination of the Rocker (Cat #200300-01) and 47 mm PES membranes with a 0.45 micron pore size obtained from Sterlitech (Catalog #PE54547100).
Where [3] appears, read: second experiment, Tables 8 and 9.
Where [4] appears, read: second experiment, positive control, Table 5.
[5] abbreviates: all testing runs (Tables 2 and 3).

Method for Candida auris (AR-0381): as §1, §2, §3, §4

In series [1], `C[C@H](N)C(=O)O` [Alanine] returned a Viscosity of 40700 milliPoise.

By MIC is commonly meant the lowest concentration found to suppress growth. Consider `C[C@@H]1[C@H](O)[C@@H](C)/C=C/C=C/C=C/C=C/C=C/C=C/C=C/[C@H](O[C@@H]2O[C@H](C)[C@@H](O)[C@H](N)[C@@H]2O)C[C@@H]2O[C@](O)(C[C@@H](O)C[C@@H](O)[C@H](O)CC[C@@H](O)C[C@@H](O)CC(=O)O[C@H]1C)C[C@H](O)[C@H]2C(=O)O` [Amphotericin 81], for which the minimum inhibitory concentration (MIC) with Candida auris, (AR-0381) was 0.38 µg/mL (≈ 0.411 µM).

`N=C(N)NCCC[C@H](N)C(=O)O` [Arginine]: in series [1], the Viscosity came to 25600 milliPoise.

For `N[C@@H](CC(=O)O)C(=O)O` [Aspartic acid], in series [1], the Viscosity was 25100 milliPoise.

On to `CC[C@H](C)C[C@H](C)CCCCCCCCC(=O)N[C@H]1C[C@@H](O)[C@@H](NCCN)NC(=O)[C@@H]2[C@@H](O)CCN2C(=O)[C@H]([C@H](O)CCN)NC(=O)[C@H]([C@H](O)[C@@H](O)c2ccc(O)cc2)NC(=O)[C@@H]2C[C@@H](O)CN2C(=O)[C@H]([C@@H](C)O)NC1=O` [Caspofungin], for which the MIC in the series on Candida auris, (AR-0381) is 0.13 µg/mL (≈ 0.119 µM).

The compound `Cl.N[C@@H](CS)C(=O)O` [Cysteine-HCl] came in with a Viscosity in series [1] of 28400 milliPoise.

On to `CC(C)(CO)C(O)C(=O)NCCCO` (stereo not drawn) [D L Panthenol], for which the Viscosity in series [1] is 28650 milliPoise.

Take `CC(C)(CO)[C@@H](O)C(=O)NCCCO` [D Panthenol]: in series [1], the Viscosity is reported as 31600 milliPoise.

Consider `CCO` [Ethanol, reference compound], for which the “LRV (log reduction value)” value in the series on SARS-COV-2 (Table 7) was more than 1.8; with SARS-COV-2 (positive control, Table 4) it was more than 1.8; in the series with SARS-COV-2 (setting [3]), more than 2.0; in the series on SARS-COV-2 (setting [4]), more than 2.0. Moreover, the Virus Titer is reported as <1.7 Log10 CCID50of virus per 0.1 mL with SARS-COV-2 (Table 7); <1.7 Log10 CCID50 of virus per 0.1 mL in the series with SARS-COV-2 (positive control, Table 4); <1.7 Log10 CCID50of virus per 0.1 mL in the series on SARS-COV-2 (setting [3]); <1.7 Log10 CCID50 of virus per 0.1 mL in the series on SARS-COV-2 (setting [4]). The “toxicity to cells in titer plates” value in the series with Vero 76 cells was “toxic to cells”.

`OC(Cn1cncn1)(Cn1cncn1)c1ccc(F)cc1F` [Fluconazolc, fluconazole]: the MIC in the series with Candida auris, (AR-0381) was 4.00 µg/mL (≈ 13.1 µM).

Take `Nc1[nH]c(=O)ncc1F` [Flucytosine]: the MIC in the series with Candida auris, (AR-0381) was 2.00 µg/mL (≈ 15.5 µM).

With `N[C@@H](Cc1c[nH]cn1)C(=O)O` [Histidine base], the Viscosity in series [1] stood at 28050 milliPoise.

Consider `CC[C@H](C)[C@H](N)C(=O)O` [Iso-Leucine], for which the Viscosity in series [1] was determined as 29900 milliPoise.

Turning to `CCC(C)n1ncn(-c2ccc(N3CCN(c4ccc(OCC5COC(Cn6cncn6)(c6ccc(Cl)cc6Cl)O5)cc4)CC3)cc2)c1=O` (stereo not drawn) [Iuaconazole, itraconazole], the MIC in the series on Candida auris, (AR-0381) is 0.13 µg/mL (≈ 0.184 µM).

For `NCCCC[C@H](N)C(=O)O` [Lysine base], in series [1], the Viscosity amounted to 26900 milliPoise.

Compound `Cl.NCCCC[C@H](N)C(=O)O` [Lysine-hcl] had a Viscosity in series [1] of 30700 milliPoise.

Take `CSCC[C@H](N)C(=O)O` [Methionine]: the Viscosity in series [1] was determined as 32350 milliPoise.

As to `CCCCCOc1ccc(-c2cc(-c3ccc(C(=O)N[C@H]4C[C@@H](O)[C@@H](O)NC(=O)[C@@H]5[C@@H](O)[C@@H](C)CN5C(=O)[C@H]([C@H](O)CC(N)=O)NC(=O)[C@H]([C@H](O)[C@@H](O)c5ccc(O)c(OS(=O)(=O)O)c5)NC(=O)[C@@H]5C[C@@H](O)CN5C(=O)[C@H]([C@@H](C)O)NC4=O)cc3)no2)cc1` [Micafungin] (X1-[Orn(4R-OH,5R-OH)]T[Hyp][hTyr(3S-OH,4S-OH,3'-OSO3H)][Gln(3R-OH)][Pro(3S-OH,4S-Me)]; lactam 1-C), in the series with Candida auris, (AR-0381), the MIC is 0.13 µg/mL (≈ 0.102 µM).

The compound `NC(=O)c1cccnc1` [Niacinamide] gave a Viscosity in series [1] of 33800 milliPoise.

Regarding `N[C@@H](Cc1ccccc1)C(=O)O` [Phenylalanine], in series [1], the reduction in viscosity entry is “two log-reduction in viscosity” and the Viscosity was found to be 130 milliPoise.

Turning to `CC[C@@H]([C@H](C)O)n1ncn(-c2ccc(N3CCN(c4ccc(OC[C@@H]5CO[C@@](Cn6cncn6)(c6ccc(F)cc6F)C5)cc4)CC3)cc2)c1=O` [Posaconazolc, posaconazole], the MIC in the series with Candida auris, (AR-0381) is 0.06 µg/mL (≈ 0.0856 µM).

Take `C/C=C/C=C/C(=O)[O-].[K+]` [Potassium Sorbate, Potassium sorbate]: the “Test Disks Density (log)” value is 5.0 log and 4.9 log in the series on Candida auris (AR-0381) (Exposure 2 min., yeast recovered from treated carriers); 4.8 log and 4.9 log in series [2] (Exposure 1 min., yeast recovered from treated carriers). The kill rates entry (in the series with Candida auris (AR-0381) (setting [5]); in series [2] (setting [5])) was “less than one log” throughout. In the series on microbial growth, the “reduction in microbial growth” value is given as “little reduction in microbial growth”.

For `N[C@@H](CO)C(=O)O` [Serine], the Viscosity in series [1] amounted to 22300 milliPoise.

Compound `C[C@@H](O)[C@H](N)C(=O)O` [Threonine] showed a Viscosity in series [1] of 30650 milliPoise.

As to `N[C@@H](Cc1c[nH]c2ccccc12)C(=O)O` [Tryptophan], in series [1], the reduction in viscosity entry was “two log-reduction in viscosity” and the Viscosity worked out at 21 milliPoise.

Turning to `CC(C)[C@H](N)C(=O)O` [Valine], in series [1], the Viscosity was 31850 milliPoise.

For the compound `C[C@@H](c1ncncc1F)[C@](O)(Cn1cncn1)c1ccc(F)cc1F` [Voriconazole], the MIC with Candida auris, (AR-0381) is 0.03 µg/mL (≈ 0.0859 µM).

Regarding Anidulaftrngin, the MIC in the series on Candida auris, (AR-0381) is 0.25 µg/mL.
